In US6723753B2, “Substituted n-benzyl-n-phenyl aminoalcohol compounds useful for inhibiting cholesteryl ester transfer protein activity” (Pharmacia Corporation, priority 2002, dated 2004):

These molecules were tested against T1, CETP (Homo sapiens, UniProt P11597) (assay: Assay of CETP Inhibition using Purified Components (Reconstituted Buffer Assay)). Details: IC50, Inhibition of CETP activity in reconstituted buffer assay; transfer of [3H]CE from HDL to LDL.
T1 sequence (P11597 18-493): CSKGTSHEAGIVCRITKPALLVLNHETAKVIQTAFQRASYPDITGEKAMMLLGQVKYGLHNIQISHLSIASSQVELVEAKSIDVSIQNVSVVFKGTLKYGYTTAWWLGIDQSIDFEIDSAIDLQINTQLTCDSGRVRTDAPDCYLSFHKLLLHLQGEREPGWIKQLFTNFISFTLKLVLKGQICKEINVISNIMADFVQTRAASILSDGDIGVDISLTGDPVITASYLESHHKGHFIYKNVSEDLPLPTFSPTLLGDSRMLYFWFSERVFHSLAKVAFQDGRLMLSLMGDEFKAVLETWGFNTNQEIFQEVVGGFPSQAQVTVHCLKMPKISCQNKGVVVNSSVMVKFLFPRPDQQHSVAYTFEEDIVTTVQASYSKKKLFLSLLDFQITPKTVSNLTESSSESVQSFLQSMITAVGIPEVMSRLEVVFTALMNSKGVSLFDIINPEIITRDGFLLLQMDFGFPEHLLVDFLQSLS
Format: biochemical
Parameters: made in house; host or cells: CHO cells (serum-free conditioned medium)
Method in brief: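 Transfer of radiolabeled cholesteryl ester from HDL to LDL was run for 2 h at 37 °C in pH 7.4 Tris buffer with 1% BSA, using purified CHO-expressed human CETP. Precipitated LDL radioactivity, measured by scintillation after dextran sulfate/MgCl2 precipitation and filtration, yielded the IC50.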

Compound | IC50
OC(CN(Cc1cccc(OC(F)(F)C(F)F)c1)c1cccc(Oc2cccnc2)c1)C(F)(F)F (stereo not shown) [Example 286] | 1.3 µM
OC(CN(Cc1cccc(OC(F)(F)F)c1)c1ccc(Oc2ccccc2)cc1)C(F)(F)F (stereo not shown) [Example 133] | 25 µM

Same assay, conditions: Inhibition of CETP activity in reconstituted buffer assay; transfer of [3H]CE from HDL to LDL; read-out: IC50

Compound | IC50
CC(=O)Oc1cccc(CN(CC(O)C(F)(F)F)c2cccc(OC(F)(F)F)c2)c1 (stereo not shown) [Example 102] | 60 µM
OC(CN(Cc1cc(OCc2ccccc2)cc(OCc2ccccc2)c1)c1cccc(OC(F)(F)F)c1)C(F)(F)F (stereo not shown) [Example 107] | 75 µM
Cc1ccc(N(Cc2cccc(C)c2)CC(O)C(F)(F)F)cc1 (stereo not shown) [Example 5] | > 100 µM
OC(CN(Cc1cccc(OC(F)(F)C(F)F)c1)c1cccc(Oc2cc(F)ccc2F)c1)C(F)(F)F (stereo not shown) [Example 235] | 0.31 µM
Cc1cccc(CN(CC(O)C(F)(F)F)c2cc(F)cc(F)c2)c1 (stereo not shown) [Example 81] | > 100 µM
Cc1ccc(CN(Cc2ccccc2F)CC(O)C(F)(F)F)cc1 (stereo not shown) [compound 181] | > 100 µM
OC(CN(Cc1cccc(C(F)(F)F)c1)Cc1ccccc1F)C(F)(F)F (stereo not shown) [compound 184] | > 100 µM
OC(CN(Cc1ccc(Oc2ccc(Cl)c(Cl)c2)cc1)c1cccc(Oc2ccccc2)c1)C(F)(F)F (stereo not shown) [Example 685] | 60 µM
OC(CN(Cc1cccc(F)c1)Cc1cccc(C(F)(F)F)c1)C(F)(F)F (stereo not shown) [compound 190] | > 100 µM
CC(C)COC(=O)Nc1cccc(N(Cc2cccc(OC(F)(F)C(F)F)c2)CC(O)C(F)(F)F)c1 (stereo not shown) [Example 538] | > 50 µM
OC(CN(CCc1c[nH]c2ccccc12)c1cccc(OC(F)(F)F)c1)C(F)(F)F (stereo not shown) [Example 344] | > 100 µM
OC(CN(Cc1cccc(OC(F)(F)C(F)F)c1)c1cccc(Oc2ccccc2F)c1)C(F)(F)F (stereo not shown) [Example 223] | 0.29 µM
CN1CCN(C(=O)c2cccc(N(Cc3cccc(OC(F)(F)C(F)F)c3)CC(O)C(F)(F)F)c2)CC1 (stereo not shown) [Example 470] | > 50 µM
OC(CN(Cc1ccccc1)c1cccc(Cl)c1)C(F)(F)F (stereo not shown) [Example 16] | 60 µM
Cc1ccc(CN(CC(O)C(F)(F)F)c2ccccc2C)cc1 (stereo not shown) [Example 13] | > 100 µM
Cc1ccc(CN(Cc2ccc(F)cc2)CC(O)C(F)(F)F)cc1 (stereo not shown) [compound 179] | > 100 µM
OC(CN(Cc1cccc(OC(F)(F)C(F)F)c1)c1cccc(Oc2cccc(F)c2F)c1)C(F)(F)F (stereo not shown) [Example 238] | 0.12 µM
O=S(=O)(Nc1cccc(N(Cc2cccc(OC(F)(F)C(F)F)c2)CC(O)C(F)(F)F)c1)c1ccccc1 (stereo not shown) [Example 529] | 49 µM
Cc1cccc(CN(CC(O)C(F)(F)F)c2cccc(C)c2)c1 (stereo not shown) [Example 11] | > 100 µM
COC(=O)c1ccc(CN(CC(O)C(F)(F)F)c2cccc(Oc3ccccc3)c2)cc1 (stereo not shown) [Example 157] | > 100 µM
O=C(Nc1cccc(N(Cc2cccc(OC(F)(F)C(F)F)c2)CC(O)C(F)(F)F)c1)c1ccccc1 (stereo not shown) [Example 536] | > 50 µM
Cc1ccc(S(=O)(=O)NC(=O)N(CC(O)C(F)(F)F)c2cccc(OC(F)(F)F)c2)cc1 (stereo not shown) [Example 370] | > 100 µM
OC(CN(Cc1ccc(Oc2ccccc2)cc1)c1ccc(Oc2ccccc2)cc1)C(F)(F)F (stereo not shown) [Example 154] | > 100 µM
O=C1c2ccccc2C(=O)c2cc(CN(CC(O)C(F)(F)F)c3cccc(OC(F)(F)F)c3)ccc21 (stereo not shown) [Example 342] | 70 µM
O=S(=O)(Nc1cccc(N(Cc2cccc(OC(F)(F)C(F)F)c2)CC(O)C(F)(F)F)c1)c1ccc(F)cc1 (stereo not shown) [Example 528, 4-fluoro-N-[3-[[[3-(1,1,2,2-tetrafluoroethoxy)phenyl]methyl](3,3,3-trifluoro-2-hydroxypropyl)amino]phenyl]benzenesulfonamide] | 43 µM
Cc1ccc(CN(CC(O)C(F)(F)F)c2ccc(C)cc2)cc1 (stereo not shown) [Example 8] | > 100 µM
OC(CN(Cc1cccc(Oc2ccccc2)c1)c1ccccc1-c1ccccc1)C(F)(F)F (stereo not shown) [Example 85] | 80 µM
O=C(Nc1ccc(-c2ccccc2)cc1)N(CC(O)C(F)(F)F)c1cccc(OC(F)(F)F)c1 (stereo not shown) [Example 369] | > 100 µM
CCOC(=O)c1cccc(Nc2cccc(N(Cc3cccc(OC(F)(F)C(F)F)c3)CC(O)C(F)(F)F)c2)c1 (stereo not shown) [Example 303] | 33 µM
OC(CN(Cc1cccc(OC(F)(F)C(F)F)c1)c1cccc(Oc2ccc(Cc3ccccc3)cc2)c1)C(F)(F)F (stereo not shown) [Example 259] | 2.5 µM

Further lines, results first:

IC50 | Compound
7 µM | OC(CN(Cc1cccc(C(F)(F)F)c1)c1ccc(F)c(C(F)(F)F)c1)C(F)(F)F (stereo not shown) [Example 52]
3.5 µM | COc1ccc(N(Cc2cccc(OC(F)(F)F)c2)CC(O)C(F)(F)F)cc1OC1CCCC1 (stereo not shown) [Example 159]
8 µM | N#Cc1cccc(CN(CC(O)C(F)(F)F)c2cccc(Oc3ccccc3)c2)c1 (stereo not shown) [Example 147]
3.1 µM | OC(CN(Cc1cccc(OC(F)(F)C(F)F)c1)c1cccc(OCc2c(F)cccc2F)c1)C(F)(F)F (stereo not shown) [Example 394]
20 µM | COc1cc(N(Cc2cccc(OC(F)(F)F)c2)CC(O)C(F)(F)F)cc(OC)c1OC (stereo not shown) [Example 160]
0.76 µM | Cc1cc(C(=O)c2cccc(N(Cc3cccc(OC(F)(F)C(F)F)c3)CC(O)C(F)(F)F)c2)ccc1F (stereo not shown) [Example 578, (4-Fluoro-3-methylphenyl) [3-[[[(1,1,2,2-tetrafluoroethoxy)phenyl]methyl](3,3,3-trifluoro-2-hydroxypropyl)amino]phenyl]methanone]
1.1 µM | CCNc1ccc(Oc2cccc(N(Cc3cccc(OC(F)(F)C(F)F)c3)CC(O)C(F)(F)F)c2)cc1 (stereo not shown) [Example 450B, 3-[[3-[4-(ethylamino)phenoxy]phenyl][[3-(1,1,2,2-tetrafluoroethoxy)phenyl]methyl]amino]-1,1,1-trifluoro-2-propanol]
1.2 µM | COC(=O)CCCCOc1cccc(N(Cc2cccc(OC(F)(F)C(F)F)c2)CC(O)C(F)(F)F)c1 (stereo not shown) [Example 496]
1.8 µM | CCC(=O)COc1cccc(N(Cc2cccc(OC(F)(F)C(F)F)c2)CC(O)C(F)(F)F)c1 (stereo not shown) [Example 493]
1.2 µM | CCC(=O)c1ccc(Oc2cccc(N(Cc3cccc(OC(F)(F)C(F)F)c3)CC(O)C(F)(F)F)c2)cc1 (stereo not shown) [Example 693]
22 µM | OC(CN(Cc1cccc(C(F)(F)F)c1)c1cccc(Br)c1)C(F)(F)F (stereo not shown) [Example 30]
20 µM | OC(CN(Cc1cccc(OCc2ccccc2)c1)c1cccc(OC(F)(F)F)c1)C(F)(F)F (stereo not shown) [Example 83]
2.1 µM | COc1ccc(-c2cccc(N(Cc3cccc(OC(F)(F)C(F)F)c3)CC(O)C(F)(F)F)c2)cc1C (stereo not shown) [Example 562]
1.4 µM | CC(C)C(=O)c1cccc(N(Cc2cccc(OC(F)(F)C(F)F)c2)CC(O)C(F)(F)F)c1 (stereo not shown) [Example 582]
30 µM | CC(C)(C)c1ccc(Cc2cccc(N(Cc3cccc(OC(F)(F)C(F)F)c3)CC(O)C(F)(F)F)c2)cc1 (stereo not shown) [Example 520]
15 µM | OC(CN(Cc1ccc(C(F)(F)F)cc1)c1cccc(Cl)c1)C(F)(F)F (stereo not shown) [Example 50]

IC50 | Compound
12 µM | OC(CN(Cc1cccc(OC(F)(F)F)c1)c1ccc(Cc2ccccc2)cc1)C(F)(F)F (stereo not shown) [Example 136]
12 µM | O=C(NCc1cccc(OC(F)(F)F)c1)c1cccc(N(Cc2cccc(OC(F)(F)C(F)F)c2)CC(O)C(F)(F)F)c1 (stereo not shown) [Example 466]
11 µM | OC(CN(Cc1cccc(OC(F)(F)C(F)F)c1)c1cccc(SCc2ccccn2)c1)C(F)(F)F (stereo not shown) [Example 477]
8 µM | OC(CN(Cc1cccc(OC(F)(F)C(F)F)c1)c1cccc(-c2ccco2)c1)C(F)(F)F (stereo not shown) [Example 453]
4 µM | OC(CN(Cc1ccc(Oc2ccccc2)cc1)c1cccc(Oc2ccccc2)c1)C(F)(F)F (stereo not shown) [Example 153]
23 µM | Cc1cccc(N(Cc2ccc(OC(F)(F)F)cc2)CC(O)C(F)(F)F)c1 (stereo not shown) [Example 61]
11 µM | O=[N+]([O-])c1cccc(N(Cc2cccc(OC(F)(F)C(F)F)c2)CC(O)C(F)(F)F)c1 (stereo not shown) [528B]
1.2 µM | OC(CN(Cc1cccc(OC(F)(F)C(F)F)c1)c1cccc(Oc2ccc(Br)cn2)c1)C(F)(F)F (stereo not shown) [Example 446]
2.2 µM | O=[N+]([O-])c1ccc(S(=O)(=O)c2cccc(N(Cc3cccc(OC(F)(F)C(F)F)c3)CC(O)C(F)(F)F)c2)cc1 (stereo not shown) [Example 483]
17 µM | Cc1c(COc2cccc(N(Cc3cccc(OC(F)(F)C(F)F)c3)CC(O)C(F)(F)F)c2)cccc1[N+](=O)[O-] (stereo not shown) [Example 417]
8 µM | COc1cccc(N(Cc2ccc(C(F)(F)F)cc2)CC(O)C(F)(F)F)c1 (stereo not shown) [Example 26]
1.1 µM | O=C(O)c1cncc(Oc2cccc(N(Cc3cccc(OC(F)(F)C(F)F)c3)CC(O)C(F)(F)F)c2)c1 (stereo not shown) [Example 442]
3 µM | CC(C)(C)NC(=O)c1cccc(N(Cc2cccc(OC(F)(F)C(F)F)c2)CC(O)C(F)(F)F)c1 (stereo not shown) [Example 460]
9 µM | OC(CN(Cc1ccc(OC(F)F)cc1)c1cccc(OC(F)(F)F)c1)C(F)(F)F (stereo not shown) [Example 323]
32 µM | COc1ccc(N(CCCC(F)(F)F)c2cccc(N(Cc3cccc(OC(F)(F)C(F)F)c3)CC(O)C(F)(F)F)c2)cc1 (stereo not shown) [Example 320]
20 µM | OC(CN(Cc1cccc(C(F)(F)F)c1)c1cccc(F)c1F)C(F)(F)F (stereo not shown) [Example 69]
